Laboratory results taken from publication PMC2993768 (Journal of natural products, 2010).

Legend:
[1] = micromolar range; cited from earlier work
[2] = tested on: mouse dorsal root ganglion (DRG) neurons; conditions: purified compounds, 20 μg / mL, K+-stimulated
[3] = tested on: other serotonin receptors; experiment: PDSP primary binding assay at 10 μM, other serotonin receptors; set-up: species or system human; conditions: from Ki at 5-HT2B vs no significant binding at 10 μM

Structure (SMILES) | antihypotensive activity [1] | effect on Ca2+ influx in DRG cells [2] | selectivity for 5-HT2B over related receptors [3]
O=C(O)c1csc(-c2ccccc2O)n1 [Aeruginoic acid] | exhibited antihypotensive activity |  | 
OC[C@@H]1CSC(c2ccccc2O)=N1 [Compound 1, aerugine] |  | observably increased Ca^2+ influx | 
NC(=O)C1CSC(c2ccccc2O)=N1 (centres unmarked) [Compound 3, pulicatin G] |  | observably increased Ca^2+ influx | 
C[C@@H]1SC(c2ccccc2O)=N[C@@H]1CO [Compound 6, Pulicatin A] |  | decreased Ca^2+ influx | at least 20 fold
